{"source": "paper PMC8001558", "about": "(Viruses, 2021)", "key": {"[1]": {"tested_on": "GII.4 VA387 (N/N) P-dimers", "assay_type": "binding", "settings": "CSP NMR; buffer B: 75 mM sodium phosphate, 100mM NaCl (pH 7.3); 170 µM protein; 298 K; listed as 3′SL"}, "[2]": {"tested_on": "MNV07 P-domain", "assay_type": "binding"}, "[3]": {"tested_on": "VA387 P-dimers", "design": "method as in ref 31 = [31]", "settings": "MS based data; cited from earlier work"}, "[4]": {"molecular_target": "GII.4 Saga (N/N) P-dimers (Norovirus GII.4, UniProt B5BTR7)", "assay": "biochemical", "assay_type": "binding"}, "[5]": {"molecular_target": "GII.4 MI001 (N/N) P-dimers (Norovirus Hu/GII.4/MI001/2011/USA, UniProt S5FWF8)", "assay": "biochemical", "assay_type": "binding", "settings": "CSP NMR titration; 75 mM sodium phosphate, 100 mM NaCl (pH 7.3); 220 µM protein"}, "[6]": {"molecular_target": "GII.10 P-dimers", "design": "method as in ref 28 = [28]", "settings": "STD NMR titrations stopped at first step of the curve; cited from earlier work"}, "[7]": {"molecular_target": "GII.4 Saga (P-domain) (Norovirus GII.4, UniProt B5BTR7)", "assay": "Re-evaluation of previously reported STD NMR titrations, one-site binding model", "design": "species or system human norovirus (HuNoV)"}, "[8]": {"molecular_target": "MNV CW1 P-domain (Norovirus, UniProt Q80J94, K296E)", "assay": "CSP NMR binding experiment with MNV P-domain", "design": "species or system murine norovirus (MNV)", "settings": "MNV P-domains saturated with GCDCA"}, "[9]": {"molecular_target": "P-domain of the VP1 capsid protein of human norovirus GII.4 strain MI001 (human norovirus GII.4 strain MI001)"}, "[10]": {"molecular_target": "P-domain of the VP1 capsid protein of human norovirus GII.4 strain VA387 (human norovirus GII.4 strain VA387)"}, "[11]": {"molecular_target": "P-domain of the VP1 capsid protein of murine norovirus strain MNV07 (murine norovirus strain MNV07)"}, "[12]": {"settings": "25 mM Tris-d11 pH* 7.40, 300 mM NaCl, 298 K, refit of titration data of ref [2], read-out: KD in mM (reevaluated)"}}, "note": "Like-named read-outs stand apart in the source and are kept apart here."}
{"compound": "C[C@@H]1O[C@@H](O[C@@H]2[C@@H](O[C@H]3O[C@H](CO)[C@H](O)[C@H](O)[C@H]3O)[C@@H](O)[C@@H](CO)O[C@@H]2N=[N+]=[N-])[C@@H](O)[C@H](O)[C@@H]1O", "note": "(hydrate or solvate) [B-Tri 3, blood group B trisaccharide (azido group at the anomeric position)]", "values": [{"measurement": "melting point", "value": "204 to 206", "unit": "°C"}]}
{"compound": "CC(=O)N[C@H]1[C@H]([C@H](O)[C@H](O)CO)O[C@@](O[C@H]2[C@@H](O)[C@@H](CO)O[C@@H](O[C@H]3[C@H](O)[C@@H](O)[C@H](O)O[C@@H]3CO)[C@@H]2O)(C(=O)O)C[C@@H]1O", "note": "[3′SL 6, 3′-sialyllactose]", "values": [{"measurement": "binding (tested negative/positive)", "setting": "[1]", "value": "no binding"}, {"measurement": "binding (tested negative/positive)", "setting": "[2]; STD, buffer B (20 mM sodium acetate, 100 mM NaCl, pH 5.3), with GCDCA, no EDTA, no Ca2+, listed as 3′SL", "value": "no saturation transfer"}, {"measurement": "binding to VA387 P-dimers", "setting": "[3]", "value": "neither 3′-sialyllactose nor 6′-sialyllactose bind"}]}
{"compound": "CC(=O)N[C@H]1[C@H]([C@H](O)[C@H](O)CO)O[C@@](OC[C@H]2O[C@@H](O[C@H]3[C@H](O)[C@@H](O)[C@H](O)O[C@@H]3CO)[C@H](O)[C@@H](O)[C@H]2O)(C(=O)O)C[C@@H]1O", "note": "[6′-sialyllactose, reference compound]", "values": [{"measurement": "binding to VA387 P-dimers", "setting": "[3]", "value": "neither 3′-sialyllactose nor 6′-sialyllactose bind"}]}
{"compound": "CC(=O)N[C@H]1[C@@H](O[C@H]2[C@@H](O)[C@@H](CO)O[C@@H](O)[C@@H]2O[C@@H]2O[C@@H](C)[C@@H](O)[C@@H](O)[C@@H]2O)O[C@H](CO)[C@H](O)[C@@H]1O", "note": "[A-Tri 2, blood group A trisaccharide]", "values": [{"measurement": "Kd", "setting": "[4]", "value": "4.3 ± 0.4", "unit": "mM"}]}
{"compound": "C[C@@H]1O[C@@H](O[C@@H]2[C@@H](O[C@H]3O[C@H](CO)[C@H](O)[C@H](O)[C@H]3O)[C@@H](O)[C@@H](CO)O[C@@H]2N=[N+]=[N-])[C@@H](O)[C@H](O)[C@@H]1O", "note": "[B-Tri 3, blood group B trisaccharide (azido group at the anomeric position)]", "values": [{"measurement": "Kd", "setting": "[5]", "value": "4.3 ± 0.4", "unit": "mM"}]}
{"compound": "O=C(O)CC(O)(CC(=O)O)C(=O)O", "note": "[Citrate, reference compound]", "values": [{"measurement": "dissociation constants", "setting": "[6]", "value": "sub millimolar"}, {"measurement": "Kd", "setting": "[7]; KD in mM (reevaluated)", "value": "22.9 ± 2.7", "unit": "mM"}]}
{"compound": "CO[C@@H]1O[C@@H](C)[C@@H](O)[C@@H](O)[C@@H]1O", "note": "[Fuc 8, methyl α-L-fucopyranoside]", "values": [{"measurement": "Kd", "setting": "[7]; 25 mM BisTris-d19 pH* 6.5, 300 mM NaCl, 298 K, refit of titration data of ref [2], read-out: KD in mM (reevaluated)", "value": "15.1 ± 1.6", "unit": "mM"}, {"measurement": "Kd", "setting": "[7]; 25 mM PBS pH* 5.50, 300 mM NaCl, 298 K, refit of titration data of ref [2], read-out: KD in mM (reevaluated)", "value": "21.9 ± 2.6", "unit": "mM"}, {"measurement": "Kd", "setting": "[7]; 25 mM PBS pH* 6.50, 300 mM NaCl, 298 K, refit of titration data of ref [2], read-out: KD in mM (reevaluated)", "value": "18.4 ± 2.6", "unit": "mM"}, {"measurement": "Kd", "setting": "[7]; 25 mM PBS pH* 7.40, 300 mM NaCl, 298 K, refit of titration data of ref [2] (Mallagaray et al., Angew Chem Int Ed 2015), read-out: KD in mM (reevaluated)", "value": "15.6 ± 1.9", "unit": "mM"}, {"measurement": "Kd", "setting": "[7]; 25 mM sodium acetate-d3, pH* 4.50, 300 mM NaCl, 298 K, refit of titration data of ref [2], read-out: KD in mM (reevaluated)", "value": "24.5 ± 4.1", "unit": "mM"}]}
{"compound": "CC(CCC(=O)NCC(=O)O)C1CCC2C3C(O)CC4CC(O)CCC4(C)C3CCC12C", "note": "(centres unmarked) [GCDCA, glycochenodeoxycholic acid, reference compound]", "values": [{"measurement": "STD effects (saturation transfer to ligand)", "setting": "[2]; 80 µM protein, 20 mM sodium acetate buffer (pH 5.3), 250 µM GCDCA, 2 mM 3′SL, 298 K, 600 MHz", "value": "show STD effects"}]}
{"compound": "CO[C@@H]1O[C@H](CO)[C@H](O)[C@H](O)[C@H]1O[C@@H]1O[C@@H](C)[C@@H](O)[C@@H](O)[C@@H]1O", "note": "[H-Dis 12, blood group H-disaccharide]", "values": [{"measurement": "Kd", "setting": "[7]; [12]", "value": "26.5 ± 2.7", "unit": "mM"}]}
{"compound": "C[C@H](O)[C@@H](O)[C@@H](O)[C@H](O)C=O", "note": "[L-fucose]", "values": [{"measurement": "dissociation constants", "setting": "[6]", "value": "sub millimolar"}]}
{"compound": "[Cl-].[Cl-].[Mg+2]", "note": "[Mg^2+]", "values": [{"measurement": "binding of bivalent metal ions", "setting": "[8]", "value": "detected binding"}]}
{"compound": "[Mn+2]", "note": "[Mn^2+]", "values": [{"measurement": "binding of bivalent metal ions", "setting": "[8]", "value": "detected binding"}]}
{"compound": "CO[C@@H]1O[C@H](CO)[C@H](O)[C@H](O[C@H]2O[C@H](CO)[C@H](O)[C@H](O)[C@H]2O)[C@H]1O[C@@H]1O[C@@H](C)[C@@H](O)[C@@H](O)[C@@H]1O", "note": "[b -Methyl glycoside of B-trisaccharide, reference compound]", "values": [{"measurement": "Kd", "setting": "[7]; [12]", "value": "5.2 ± 0.5", "unit": "mM"}]}
{"compound": "P-domain of the VP1 capsid protein of human norovirus GII.4 strain MI001 (domain or fragment)", "values": [{"measurement": "stoichiometry N", "setting": "[9]", "value": 2}]}
{"compound": "P-domain of the VP1 capsid protein of human norovirus GII.4 strain VA387 (domain or fragment)", "values": [{"measurement": "stoichiometry N", "setting": "[10]", "value": 2}]}
{"compound": "P-domain of the VP1 capsid protein of murine norovirus strain MNV07 (domain or fragment)", "values": [{"measurement": "stoichiometry N", "setting": "[11]", "value": 2}]}
